Results taken from paper PMC10794137, “A new antibiotic traps lipopolysaccharide in its intermembrane transporter” (Nature, 2024).

Tests used:
LptB2FGC = assay: ATPase assay (molybdate), LptB2FGC proteoliposomes; type: biochemical, Acinetobacter baylyi; details: for Effect on ATPase activity: LptB2FGC liposomes, in presence of LPS
Procedure: (§1) Proteoliposomes were prepared as described previously. Aqueous E. coli polar lipid extract (Avanti Polar Lipids) (30 mg ml^−1) and aqueous LPS from E. coli EH100 (Ra mutant; Sigma) (2 mg ml^−1) were sonicated briefly for homogenization. For experiments testing the effect of LPS structure, we used LPS isolated from either GKM374 (BL21DE3 eptA::catR arnA::kanR eptC::gentR) or TXM418 (BL21DE3 eptA::catR arnA::FRT eptB::gentR lpxM::kanR) as described previously. A mixture of 20 mM Tris-HCl (pH 8.0), 150 mM NaCl, 7.5 mg ml^−1 of E. coli polar lipids, 0.5 mg ml^−1 of LPS and 0.25% DDM was prepared and kept on ice for 10 min. Purified LptB2FGC or LptB2FG was added to a final concentration of 0.86 μM and the mixture was left on ice for 20 min. The mixture was diluted 100-fold with cold 20 mM Tris-HCl (pH 8.0) and 150 mM NaCl and kept on ice for 20 min. The proteoliposomes were pelleted (300,000g, 2 h, 4 °C), resuspended in 20 mM Tris-HCl (pH 8.0) and 150 mM NaCl, diluted 100× and centrifuged (300,000g, 2 h, 4 °C). The pellets were resuspended in a mixture of 20 mM Tris-HCl (pH 8.0), 150 mM NaCl and 10% glycerol (250 μl per 100 μl of the original predilution solution), homogenized by sonication, flash frozen and stored at −80 °C until use.
ATPase assays were done using a modified molybdate method, as previously reported, with slight modifications. Assays used 30% proteoliposomes (by volume) in a mixture containing 50 mM Tris-HCl (pH 8.0), 500 mM NaCl, 10% glycerol and 2 mM MgCl2. Proteoliposome-containing reaction mixture was incubated with drug at room temperature for 10 min, as applicable. Reactions were initiated by the addition of ATP to a final concentration of 5 mM and run at 30 °C. Aliquots (5 µl) were taken at 0, 15, 30 and 45 min. Reactions were quenched with an equal volume of 12% SDS. The amounts of Pi were determined using a colorimetric method and potassium phosphate was used as a standard. Reagents were obtained from Sigma-Aldrich. After the addition of SDS, a mixture containing 10 µl of 30 mg ml^−1 of ascorbic acid, 0.5 N HCl, 5 mg ml^−1 of ammonium molybdate and 6% SDS was added. The samples were incubated at room temperature for 7 min and 15 µl of an aqueous solution containing 20 mg ml^−1 of sodium citrate tribasic dihydrate, 2 mg ml^−^1 of sodium arsenite and 2% (vol/vol) acetic acid was added. The absorbance at 850 nm was measured using a Spectramax Plus 384 (Molecular Devices) after 20 min. Error bars indicate the standard deviations of the average rates measured over three biological replicates.

[1] = target: His-tagged LptB2FG (ablLptB2FG) in the presence of LPS (Acinetobacter baylyi, UniProt Q6FFD6+Q6FFD7); assay: biochemical; type: binding
Procedure: The binding of radioligand [^3H]-RO7223280 to ablLptB2FG and ablLptB2FGC was measured by bead-based SPA. All steps were performed in SEC buffer (20 mM Tris pH 7.5, 300 mM NaCl, 5% glycerol, 0.5 mM TCEP, 0.05% DDM ± 10 µM E.coli J5 LPS(Rc) […] (Enzo Life Sciences)) and at 4 °C unless otherwise indicated. Purified protein was first incubated with Copper PVT HIS-tag beads (Perkin Elmer) for 1.5 h under gentle rotation. Twelve radioligand concentrations were added to the PVT–protein mix and incubated for another 30 min. […] The SPA plates were sealed (TopSeal, Perkin Elmer) and stored at 4 °C overnight. Before the measurement, plates were mixed on a shaker for 20 min, 750 rpm at room temperature and the seal was thoroughly wiped with antistatic spray to reduce electrostatic events. Scintillation data were recorded with a Topcount NXT C384, in the form of three independent replicates each consisting of three technical triplicates. Specific binding was calculated by subtracting non-specific binding raw counts from total binding raw counts. The dissociation constant Kd and standard deviation of the three independent replicates are reported and were calculated by the GraphPad Prism ‘One site – specific binding’ tool.
Displacement values were normalized by including nine wells containing […] (defined as 100% competition) and nine wells containing 8 uM radioligand only (defined as 0% competition). […] The Hill coefficient was used as a quality control metric (theoretically, nH = 1 for a 1:1 competitive inhibitor) and determined with the ‘[Inhibitor] vs. response -- Variable slope (four parameters)’ tool.

LptB2FGΔTM-LptC = assay: LPS release assay, LptB2FG-ΔTM-C; type: biochemical, Acinetobacter baylyi; details: complex lacking LptC TM helix
Procedure: as §1
LptC(ΔTM) was purified largely as previously described. Briefly, Bl21 (λDE3) E. coli cells containing pET22/42-LptC(ΔTM)-His7 were grown to an OD600 of approximately 0.6 at 37 °C in LB media containing 50 μg ml^−1 of carbenicillin. Cells were then induced with 50 μM IPTG; allowed to grow for 2 h; harvested and resuspended in lysis buffer (50 mM Tris pH 7.4, 300 mM NaCl, 0.1 mM EDTA). Lysozyme, DNaseI and PMSF were added to final concentrations of 100 µg ml^−1, 50 µg ml^−1 and 1 mM, respectively. Cells were homogenized and subjected to passage through an EmulsiFlex-C3 high-pressure cell disruptor three times. The cell lysate was centrifuged (10,000g, 10 min) and the supernatant was further centrifuged (100,000g, 1 h). […]
The amounts of release of LPS from proteoliposomes to LptA were measured as previously described. […]

LptB2FG = assay: ATPase assay (molybdate), LptB2FG proteoliposomes; type: biochemical, Acinetobacter baylyi; details: LptB2FG liposomes, in presence of LPS
Procedure: as §1
ATPase assays were done using a modified molybdate method, as previously reported, with slight modifications. Assays used 30% proteoliposomes (by volume) in a mixture containing 50 mM Tris-HCl (pH 8.0), 500 mM NaCl, 10% glycerol and 2 mM MgCl2. Proteoliposome-containing reaction mixture was incubated with drug at room temperature for 10 min, as applicable. Reactions were initiated by the addition of ATP to a final concentration of 5 mM and run at 30 °C. Aliquots (5 µl) were taken at 0, 15, 30 and 45 min. […] The amounts of Pi were determined using a colorimetric method and potassium phosphate was used as a standard. […] The absorbance at 850 nm was measured using a Spectramax Plus 384 (Molecular Devices) after 20 min. Error bars indicate the standard deviations of the average rates measured over three biological replicates.

LptB2FG-ΔTM-C = assay: ATPase assay (molybdate), LptB2FG-ΔTM-C proteoliposomes; type: biochemical, Acinetobacter baylyi; details: LptB2FG-ΔTM-C liposomes, in presence of LPS

Chain of His-tagged LptB2FG (ablLptB2FG) in the presence of LPS (Q6FFD6 entry or part of it): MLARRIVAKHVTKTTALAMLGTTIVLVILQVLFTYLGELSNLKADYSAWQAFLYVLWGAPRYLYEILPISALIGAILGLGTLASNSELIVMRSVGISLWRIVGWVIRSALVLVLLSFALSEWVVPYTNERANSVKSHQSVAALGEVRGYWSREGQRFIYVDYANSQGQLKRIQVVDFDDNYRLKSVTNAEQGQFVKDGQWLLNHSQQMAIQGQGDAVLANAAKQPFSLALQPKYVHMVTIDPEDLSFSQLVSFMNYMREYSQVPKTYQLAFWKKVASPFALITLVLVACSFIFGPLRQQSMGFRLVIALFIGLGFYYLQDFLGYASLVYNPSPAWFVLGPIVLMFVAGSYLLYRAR
Chain of His-tagged LptB2FG (ablLptB2FG) in the presence of LPS (Q6FC66 entry or part of it, further chain): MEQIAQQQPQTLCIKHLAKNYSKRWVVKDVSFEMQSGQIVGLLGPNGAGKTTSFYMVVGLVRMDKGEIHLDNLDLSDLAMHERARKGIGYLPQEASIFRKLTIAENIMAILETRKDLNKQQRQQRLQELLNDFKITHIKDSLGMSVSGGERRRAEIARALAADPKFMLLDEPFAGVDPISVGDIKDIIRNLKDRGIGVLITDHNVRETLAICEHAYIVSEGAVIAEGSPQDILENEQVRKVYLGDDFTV
Chain of His-tagged LptB2FG (ablLptB2FG) in the presence of LPS (Q6FFD7 entry or part of it): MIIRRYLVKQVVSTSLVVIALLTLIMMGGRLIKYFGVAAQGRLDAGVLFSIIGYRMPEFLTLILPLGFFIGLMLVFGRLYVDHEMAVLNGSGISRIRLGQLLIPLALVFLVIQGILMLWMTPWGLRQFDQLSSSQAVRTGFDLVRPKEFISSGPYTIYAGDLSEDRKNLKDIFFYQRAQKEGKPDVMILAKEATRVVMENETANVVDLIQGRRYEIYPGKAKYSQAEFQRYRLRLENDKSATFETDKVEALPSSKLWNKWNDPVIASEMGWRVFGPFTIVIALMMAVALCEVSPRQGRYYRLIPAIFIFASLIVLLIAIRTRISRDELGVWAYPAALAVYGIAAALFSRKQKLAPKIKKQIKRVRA

SMILES | Effect on ATPase activity with ΔLpxM LPS (LptB2FGC; LptB2FGC liposomes with LPS isolated from a ΔLpxM strain) | Effect on ATPase activity (LptB2FGC) | Ki [1] [nM] | Inhibition of LPS transport to LptA (LptB2FGΔTM-LptC) | Effect on ATPase activity (LptB2FG) | Effect on ATPase activity (LptB2FG-ΔTM-C)
CN1C(=O)[C@H](CCCCN)NC(=O)[C@H](CCCN)NCc2cccnc2Sc2c(Cl)ccc(-c3ccc(N)nc3)c2CNC(=O)[C@@H]1Cc1c[nH]c2ccccc12 [Compound 1] | resistant | increases the ATPase activity | 35 | inhibited | increases the ATPase activity | increases the ATPase activity
CN1C(=O)[C@H](CCCCN)NC(=O)[C@H](CCCN)NCc2cccnc2Sc2cccc(-c3ccc(C(=O)O)cc3)c2CNC(=O)[C@@H]1Cc1c[nH]c2ccccc12 [Compound 2, Zosurabalpin] |  | increases the ATPase activity | 35 | inhibited | increases the ATPase activity | increases the ATPase activity
CN1C(=O)[C@H](CCCCN)NC(=O)[C@H](CCCN)NCc2cccnc2Sc2c(Cl)ccc(Cl)c2CNC(=O)[C@@H]1Cc1c[nH]c2ccccc12 [Compound 3] |  | does not affect the ATPase | 56 | inhibited | increases the ATPase activity | increases the ATPase activity
